Test results published in patent US20020142347A1, “Biosensor” (BIOSENSOR ApS, priority 2000, published 2002).
Positions count from the first letter of the chain named.

Key:
[1] = target: T1, M24C-badan ACBP (Bos taurus, UniProt P07107, M25C); assay: Isothermal titration micro calorimetry of acyl-CoA binding to M24C-badan ACBP; parameters: species or system bovine; conditions: isotermal titration micro calorimetry
T1 construct: made in house; host or cells: E. coli BL21(DE3)pLysS, pET3a vector
T1 sequence (P07107 2-87 M25C): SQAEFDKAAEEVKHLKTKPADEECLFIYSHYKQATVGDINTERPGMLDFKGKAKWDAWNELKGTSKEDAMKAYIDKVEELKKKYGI
Description: Quantitative determination of binding affinities (KD) were performed by isothermal titration micro calorimetry as previously described (Faergeman et. al., 1996; Biochemistry 35, 14118-14126). Qualitative evaluation of relative binding affinities were determined by isoelectrical focusing using the Pharmacia Fast Gel system according to the prescriptions given by the manufacture. Fluorescence emission changes induced by acyl-CoA binding to badan modified protein were determined as follows: 5 μl portions of acyl-CoAs were added from stock solutions disolved in binding buffer, (10 mM Hepes, 150 mM NaCL, 1 mM NaHPO4, pH 7.4) containing 3.4 μM Badan derivatized protein to a 1 ml 3.4 μM solution of the Badan derivatized ACBP in the same buffer. The fluorescence emission was measured on a SPEX FLOUROLOG (Industries Inc, Edison N.J., USA) with excitation at 400 nm and emission scan from 400 nm to 550 nm. The concentration of acyl-CoA in the aqueous phase was determined from the fluorescence emission sensitivities at 495 and 470 nm repectively essentially by the method described by (Grynkiewickz et. al.,1985, J. Biol. Chem. 260, 3440-3450) according to which: […]

[2] = target: T2, FACI-24 (Bos taurus, UniProt P07107, M25C); assay: Fluorescence titration equilibrium binding analysis of CoA and acyl-CoA esters to FACI-24; parameters: species or system bovine; conditions: FACI-24 (1.5 μM) titrated with increasing CoA and acyl-CoA concentration; fitted binding curves, emission 460 nm; read-out: Kd (nM) ± S.E.
T2 construct: made in house; host or cells: E. coli BL21(DE3)pLysS, pET3a vector
T2 sequence (P07107 2-87 M25C): T1 sequence (P07107 2-87 M25C)
Description: Development of a mathematical expression describing the relationship between acyl-CoA concentration and FACI-24 fluorescence was performed essentially as by Richieri et al 1992, J Biol Chem, 267:23495-23501. However, where ligand binding to ADIFAB induces both a fluorescence intensity increase around 505 nm and a fluorescence intensity decrease around 432 nm, ligand binding to FACI-24 only causes an increase in fluorescence around 460 nm.
Derivatisation of an expression for the fluorescence value as a function of the acyl-coA concentration was done using the Scatchard equation as a starting point: [formula]
which has been used to fit the titration data.
The curves represent the best fit analysis from two independent experiment calculated and normalized as described above. The FACI-24 binding affinity increases dramatically when the acyl-chain length increases from C8 to C10 and C12, a smaller but significant drop in Kd is seen by increasing chain length from C12 to C14. C14 to C18 saturated acyl-CoA esters and C18:1-CoA binds with similar and very high affinities to FACI-24. In >0.1 M salt, FACI-24 binds acyl-CoAs with higher affinity and similar specificity as native unmodified bovine ACBP. The Kd for binding of C12-CoA and C16-CoA to native ACBP is 40 and 2.0 nM, respectively (Fulcery et al Biochemical, 1997, 325:423-428; Færgeman et al 1996, Biochemistry, 35:14118-14126). FACI-24 is highly specific for binding long-chain acyl-CoA esters.
(§1) Titration of FACI with acyl-CoAs was done using a SPEX FLOUROLOG (Industries Inc, Edison N.J., USA) with excitation at 387 nm and emission at 460 nm, with both excitation and emission slits set to 4.5 nm. FACI (0.5-4.5 uM, as indicated) was dissolved in 1.5 ml binding buffer (10 mM HEPES 150 mM NaCl, 5 mM KCl, 1 mM Na2HPO4, pH 7.4) and titrated with a 10 μM acyl-CoA dissolved in binding buffer, with or without FACI added, as indicated. Fluorescence emission values (counts per second) measured without FACI added to the ligand stock solution were corrected for titrand dilution.
Up to four parameters were fitted in this way, these were B, representing the point of saturation on the X axis, H, representing the maximum fluorescence, i.e. the fluorescence at saturating concentration of acyl-CoA, L, the minimum fluorescence value, i.e. the fluorescence of FACI-24 alone in buffer, and K, the Kd value lor the acyl-CoA in question. Initial estimates for the fittable parameters were typically: B=1, H=maximum fluorescence value measured, L=minimum fluorescence value measured (at acyl-CoA-concentration=0), and K as judged from the raw data, typically from 0.0001 uM to 0.1 uM for acyl-CoA longer than C10:0-CoA.
For each acyl-CoA at least two titrations and fittings were performed. To consider two or more titrations of the same acyl-CoA together and obtain a Kd value using all these titrations, both axes of the raw data were standardised using the fitted values of B, H and L in this way:
X axis standard=(raw X axis values)/Bfitted
Y axis standard=[(raw Y axis values)−Lfitted]/[Hfitted−Lfitted]
In this way all Y axis values should come to lie between 0 and 1 and the X axis value should be 1 at the point of saturation (FACI-24:acyl-CoA 1:1). Such adjusted data were pooled and fitted using DataFit. Typically, both H and B fitted to values close to 1 and L fitted to values close to 0. K was typically fitted to values somewhere between the two values obtained for the raw data.
This could be overcome by removing B from the fittable parameters list and instead setting it to a constant value of 1 and fitting again. This was typically done for both the raw and the standardised data.

[3] = target: T2, FACI-24; assay: Fluorescence emission change of FACI-24 on titration with CoA and acyl-CoA esters; format: binding, bovine; conditions: emission maximum without ligand 510 nm; excitation 400 nm
Description: (§2) Quantitative determination of binding affinities (KD) were performed by isothermal titration micro calorimetry as previously described (Faergeman et. al., 1996; Biochemistry 35, 14118-14126). Qualitative evaluation of relative binding affinities were determined by isoelectrical focusing using the Pharmacia Fast Gel system according to the prescriptions given by the manufacture. Fluorescence emission changes induced by acyl-CoA binding to badan modified protein were determined as follows: 5 μl portions of acyl-CoAs were added from stock solutions disolved in binding buffer, (10 mM Hepes, 150 mM NaCL, 1 mM NaHPO4, pH 7.4) containing 3.4 μM Badan derivatized protein to a 1 ml 3.4 μM solution of the Badan derivatized ACBP in the same buffer. The fluorescence emission was measured on a SPEX FLOUROLOG (Industries Inc, Edison N.J., USA) with excitation at 400 nm and emission scan from 400 nm to 550 nm. The concentration of acyl-CoA in the aqueous phase was determined from the fluorescence emission sensitivities at 495 and 470 nm repectively essentially by the method described by (Grynkiewickz et. al.,1985, J. Biol. Chem. 260, 3440-3450) according to which:
(§3) Fluorescence titration emission spectra from 415 nm to 550 nm (excitation at 400 nm) were performed for CoA, C4:0-, C8:0-, C12:0-, C16:0-, and C20:0-CoA with all four mutated and badan modified proteins.
The emission maximum of FACI-24 without ligand added was 510 nm and titration with CoA, C4:0-, C8:0-, C12:0-, […], C16:0- and C20:0-CoA caused 0, 16, 34, 42, 46 and 46 nm downshift in emission maximum, respectively (results not shown). C16:0-CoA induced a 5,5 fold increase in emission at 464 nm (FIG. 10).
as §1

[4] = target: T3, FACI53 (Bos taurus, UniProt P07107, A54C); assay: Fluorescence emission change of FACI-53 on titration with CoA and acyl-CoA esters; format: binding, bovine
T3 construct: badan (6-bromoacetyl-2-dimethylaminonaphthalene) fluorophore on the introduced Cys-53; made in house; host or cells: E. coli BL21(DE3)pLysS, pET3a vector
T3 sequence (P07107 2-87 A54C): T1 sequence (P07107 2-87 M25C) with C24M, A53C
Description: as §2, §3
Titration of FACI-53 dissolved in binding buffer with the above mentioned acyl-CoA esters produced a smooth downward shift in fluorescence emission maximum from 525 nm when no ligand was present to 508, 503, 490, 492, 496 and 514 with increasing concentrations of CoA, C4:0-, C8:0-, C12:0-, C16:0- and C20:0-CoA respectively.

[5] = target: T4, native bovine ACBP (Bos taurus, UniProt P07107); conditions: isothermal titration microcalorimetry, >0.1 M salt; literature; read-out: KD for binding to native bovine ACBP; cited from earlier work
T4 sequence (P07107 1-87): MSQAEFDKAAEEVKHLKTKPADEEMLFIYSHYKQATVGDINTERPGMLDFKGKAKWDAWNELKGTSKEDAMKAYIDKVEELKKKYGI

Structure (SMILES): CCCCCCCCCCCC(=O)SCCNC(=O)CCNC(=O)[C@H](O)C(C)(C)COP(=O)(O)OP(=O)(O)OC[C@H]1O[C@@H](n2cnc3c(N)ncnc32)[C@H](O)[C@@H]1OP(=O)(O)O [C12:0-CoA, dodecanoyl-CoA]
- Kd [1]: 40 nM
- Kd [2]: 10.2 ± 0.81 nM
- Downshift in emission maximum of FACI-24 [3]: 42 nm
- Magnitude of emission of FACI-53, fold increase [4]: 2.7 fold
- Fluorescence emission maximum of FACI-53 with ligand ([4]; 525 nm when no ligand present, excitation 400 nm): 492 nm
- Relative emission of FACI-53 at 495 nm, fold increase ([4]; emission at 495 nm): 4.7 fold
- Kd [5]: 40 nM
